Experimental data from ChEMBL document CHEMBL1152976, “Dracotanosides A-D, spermidine glycosides from Dracocephalum tanguticum: structure and amide rotational barrier” (J Nat Prod, 2009).

How the values were obtained:
K562 = assay: Cytotoxicity against human drug-sensitive K562 cells after 48 hrs by MTT assay; assay type: functional, cell-based; conditions: K562, 48 h
[1] = Cytotoxicity against human drug-resistant K562/A02 cells after 48 hrs by MTT assay; assay type: functional, cell-based; conditions: K562/A02, 48 h

For O=C1CCN[C@@H](c2ccc(O)cc2)CCCN(C(=O)/C=C\c2ccccc2)CCCN1, the IC50 (K562) was > 200 µM and the IC50 [1] was > 200 µM.

For C[C@@H]1O[C@@H](Oc2ccc([C@H]3CCCN(C(=O)/C=C\c4ccccc4)CCCNC(=O)CCN3)cc2)[C@H](O[C@@H]2O[C@H](COC(=O)c3ccccc3)[C@@H](O)[C@H](O)[C@H]2O)[C@H](O)[C@H]1O [DRACOTANOSIDE A], the IC50 (K562) was > 200 µM and the IC50 [1] was > 200 µM.

For C[C@@H]1O[C@@H](Oc2ccc([C@H]3CCCN(C(=O)/C=C/c4ccccc4)CCCNC(=O)CCN3)cc2)[C@H](O[C@@H]2O[C@H](COC(=O)c3ccccc3)[C@@H](O)[C@H](O)[C@H]2O)[C@H](O)[C@H]1O [DRACOTANOSIDE B], the IC50 (K562) was > 200 µM and the IC50 [1] was > 200 µM.

For C[C@H]1O[C@@H](Oc2ccc([C@H]3CCCN(C(=O)/C=C\c4ccccc4)CCCNC(=O)CCN3)cc2)[C@@H](O)[C@@H](O)[C@@H]1O [DRACOTANOSIDE C], the IC50 (K562) was > 200 µM and the IC50 [1] was > 200 µM.

For C[C@H]1O[C@@H](Oc2ccc([C@H]3CCCN(C(=O)/C=C/c4ccccc4)CCCNC(=O)CCN3)cc2)[C@@H](O)[C@@H](O)[C@@H]1O [DRACOTANOSIDE D], the IC50 (K562) was > 200 µM and the IC50 [1] was > 200 µM.
